According to patent US20140220081A1, “USE OF A GALACTOSE-DERIVED C-GLYCOSIDE COMPOUND AS AN AGENT FOR ACTIVATING AND REGULATING CUTANEOUS IMMUNITY” (L'OREAL, priority 2006, published 2014):

Tested on: human peripheral blood cells
Experiment: Immunostimulant activity: human lymphocyte proliferation revealed by BrdU labelling
Type: cell-based
Conditions: for % stimulation relative to the control: 3 days of culture, BrdU labelling
Protocol: The immunostimulant activity is tested in the following way: human peripheral blood cells are cultured in the presence of an RPMI-type culture medium supplemented with L-glutamine (2 mM), penicillin/streptomycin (50 μg/50 IU/ml) and foetal calf serum (10%). The C-glycoside derivatives are added at various concentrations (10 to 0.05 mM), as is phyto-haemagglutinin (PHA at 5 […]), a positive control for lymphocyte proliferation.

CC(=O)C[C@@H]1O[C@H](CO)[C@H](O)[C@H](O)[C@H]1O [Compound 1, 1-(C-β-galactopyranosyl)propan-2-one]
% stimulation relative to the control (0.05 mM): 91%
% stimulation relative to the control (0.1 mM): 89%
% stimulation relative to the control (0.5 mM): 130%
% stimulation relative to the control (1 mM): 138%
% stimulation relative to the control (5 mM): 261%
% stimulation relative to the control (10 mM): 271%
human lymphocyte proliferation (result in words) (all the concentrations tested (10 to 0.05 mM)): tendency to stimulate human lymphocyte proliferation at all the concentrations tested
